Five molecules from patent US5095012A, “Antibiotic C-7 catechol-substituted cephalosporin compounds, compositions, and method of use thereof” (Bristol-Myers Squibb Company, priority 1990, dated 1992) can be followed below.

Test [1] deals with Penicillin(PC)-sensitive S. aureus (5 strains). Put plainly: MIC by two-fold serial agar dilution, group Gp-Ia. In kind it is cell-based. To be noted: Staphylococcus aureus, Gp-Ia (5 strains), Mueller-Hinton agar, read-out: Geometric mean of MIC, Gp-Ia. The procedure:
(§1) Minimum inhibitory concentrations (MICs) for the compounds in the above examples were determined against thirty two strains of test organisms by a two-fold serial agar dilution method in Mueller-Hinton agar. Geometric means of MICs were calculated against six groups of the test organisms which are classified as follows and summarized in Table 1.
Gp-Ia Penicillin(PC)-sensitive S. aureus (5 strains).

The subject of test [2] is Ps. aeruginosa (7). Put plainly: MIC by two-fold serial agar dilution, group Gn-III. In kind it is cell-based. The settings on record: Pseudomonas aeruginosa, Gn-III (7), Mueller-Hinton agar, read-out: Geometric mean of MIC, Gn-III. The procedure:
as §1
Gn-III Ps. aeruginosa (7).

The subject of test [3] is Penicillin(PC)-resistant S. aureus (5). Put plainly: MIC by two-fold serial agar dilution, group Gp-Ib. The format is cell-based. The settings on record: Staphylococcus aureus, Gp-Ib (5), Mueller-Hinton agar, read-out: Geometric mean of MIC, Gp-Ib. The protocol: as §1
Gp-Ib Penicillin(PC)-resistant S. aureus (5).

Test [4] relates to E. coli Juhl. Put plainly: In vivo antibacterial activity in infected mice, E. coli Juhl. To be noted: Escherichia coli, im, just after the bacterial challenge, read-out: PD50, E. coli Juhl. The procedure:
(§2) In vivo antibacterial activity was determined against three bacterial infections (S. aureus Smith, E. coli Juhl and P. aeruginosa A98483A) by intramuscular administration to mice just after the bacterial challenge. PD50 values are summarized in Table 2 in comparison with the MIC values against the corresponding organisms.

Test [5] has as its system M. morganii (1), Ent. cloacae (2) and Ser. marcescens (2). Briefly: MIC by two-fold serial agar dilution, group Gn-II. The format is cell-based. To be noted: Gn-II (5), Mueller-Hinton agar, read-out: Geometric mean of MIC, Gn-II. The procedure:
as §1
Gn-II M. morganii (1), Ent. cloacae (2) and Ser.

Test [6] deals with P. aeruginosa A9843A. Put plainly: MIC against P. aeruginosa A9843A. The settings on record: Pseudomonas aeruginosa, read-out: MIC, P. aeruginosa A9843A. In kind it is cell-based. The procedure:
as §1, §2

The test system of test [7] is S. aureus Smith. Put plainly: MIC against S. aureus Smith. The settings on record: Staphylococcus aureus. In kind it is cell-based. The procedure: as §1, §2
In test [8] the test system is P. aeruginosa A9843A. Put plainly: In vivo antibacterial activity in infected mice, P. aeruginosa A9843A. To be noted: Pseudomonas aeruginosa, im, read-out: PD50, P. aeruginosa A9843A. The protocol: as §2
Test [9] concerns Cephalothin(CET)-sensitive E. coli (2), Kl. pneumoniae (1) and Pr. mirabilis (2). Put plainly: MIC by two-fold serial agar dilution, group Gn-Ia. The format is cell-based. To be noted: Gn-Ia (5), Mueller-Hinton agar, read-out: Geometric mean of MIC, Gn-Ia. The procedure:
as §1
Gn-Ia Cephalothin(CET)-sensitive E. coli (2), Kl.
pneumoniae (1) and Pr. mirabilis (2).

Test [10] concerns Cephalothin(CET)-resistant E. coli (3) and Kl. pneumoniae (2). Briefly: MIC by two-fold serial agar dilution, group Gn-Ib. In kind it is cell-based. To be noted: Escherichia coli, read-out: Geometric mean of MIC, Gn-Ib. The procedure: as §1
Gn-Ib Cephalothin(CET)-resistant E. coli (3) and Kl.

For test [11], the system named is E. coli Juhl. Put plainly: MIC against E. coli Juhl. In kind it is cell-based. The settings on record: Escherichia coli. The protocol:
as §1, §2

Test [12] relates to S. aureus Smith. Briefly: In vivo antibacterial activity in infected mice, S. aureus Smith. The settings on record: Staphylococcus aureus, im, just after the bacterial challenge, read-out: PD50, S. aureus Smith. The procedure: as §2

In brackets after ≈: the same amount, converted by molar mass.

`C[N+]1(CC2=C(C(=O)[O-])N3C(=O)C(NC(=O)C(=NOC(C(=O)O)c4ccc(O)c(O)c4)c4csc(N)n4)C3SC2)CCCC1` (stereo not drawn) [Ia, 7-[(2-(2-Aminothiazol-4-yl)-2[(Z)-[carboxy(3,4-dihydroxyphenyl)methyl]oxyimino]acetamido]-3-(1-methylpyrrolidinio)methyl-3-cephem-4-carboxylate]: the MIC in test [1] was found to be 1.4 µg/mL (≈ 2.21 µM); in test [2], 1.6 µg/mL (≈ 2.53 µM); in test [3], 3.1 µg/mL (≈ 4.9 µM); in [5], 0.8 µg/mL (≈ 1.26 µM); in [6] it was 1.6 µg/mL (≈ 2.53 µM); in test [7] it was 1.6 µg/mL (≈ 2.53 µM). The MIC in test [9] was found to be 0.3 µg/mL (≈ 0.474 µM); in test [10], 0.4 µg/mL (≈ 0.632 µM); in [11], 0.2 µg/mL (≈ 0.316 µM). Further, the ED50 in [4] was 0.14 mg/kg; in test [8] it was 6.3 mg/kg; in [12], 5.6 mg/kg.

As to `C/C=C\C1=C(C(=O)O)N2C(=O)C(NC(=O)/C(=N\OC(C(=O)O)c3ccc(O)c(O)c3)c3csc(N)n3)C2SC1` (stereo not drawn) [Ib], the MIC in test [1] turned out to be 0.92 µg/mL (≈ 1.6 µM); in test [2] it was 5.1 µg/mL (≈ 8.86 µM); in [3], 2.1 µg/mL (≈ 3.65 µM); in test [5], 7.3 µg/mL (≈ 12.7 µM); in [6] it was 3.1 µg/mL (≈ 5.39 µM); in [7], 0.8 µg/mL (≈ 1.39 µM). For the same molecule, the MIC in test [9] was 0.17 µg/mL (≈ 0.295 µM); in test [10], 0.35 µg/mL (≈ 0.608 µM); in [11], 0.4 µg/mL (≈ 0.695 µM). Further, the ED50 was 1.5 mg/kg in test [4], 17 mg/kg in test [8] and 6.8 mg/kg in [12].

Consider `Nc1nc(/C(=N/OC(C(=O)O)c2ccc(O)c(O)c2)C(=O)NC2C(=O)N3C(C(=O)[O-])=C(/C=C/C[n+]4ccccc4)CSC23)cs1` (stereo not drawn) [Ic], for which the MIC in test [1] was found to be 0.26 µg/mL (≈ 0.398 µM); in [2] it was 2.3 µg/mL (≈ 3.52 µM); in test [3], 0.4 µg/mL (≈ 0.613 µM); in [5], 0.46 µg/mL (≈ 0.705 µM); in [6], 3.1 µg/mL (≈ 4.75 µM); in test [7], 0.4 µg/mL (≈ 0.613 µM). Also, the MIC in test [9] came to 0.076 µg/mL (≈ 0.116 µM); in [10] it was 0.15 µg/mL (≈ 0.23 µM); in test [11], 0.05 µg/mL (≈ 0.0766 µM). The ED50 in test [4] is 0.067 mg/kg; in test [8], 12 mg/kg; in test [12] it was 1.4 mg/kg.

For the molecule `Nc1nc(/C(=N/OCc2cc(O)c(O)cc2C(=O)O)C(=O)NC2C(=O)N3C(C(=O)[O-])=C(/C=C/C[n+]4ccccc4)CSC23)cs1` (stereo not drawn) [Id], the MIC in [1] amounted to 0.61 µg/mL (≈ 0.935 µM); in test [2], 0.88 µg/mL (≈ 1.35 µM); in [3] it was 1.6 µg/mL (≈ 2.45 µM); in [5], 0.46 µg/mL (≈ 0.705 µM); in [6] it was 0.8 µg/mL (≈ 1.23 µM); in test [7], 0.8 µg/mL (≈ 1.23 µM). The MIC in test [9] is 0.087 µg/mL (≈ 0.133 µM); in test [10], 0.17 µg/mL (≈ 0.26 µM); in test [11] it was 0.1 µg/mL (≈ 0.153 µM). For the same molecule, the ED50 in test [4] is 0.017 mg/kg; in [8], 7.2 mg/kg; in test [12], 1 mg/kg.

Take `C[N+]1(CC2=C(C(=O)[O-])N3C(=O)C(NC(=O)/C(=N\OC(C(=O)O)c4ccc(O)c(O)c4)c4csc(N)n4)[C@H]3SC2)Cc2cc(O)c(O)cc2C1` (stereo partly drawn) [Ie, 7-[2-(2-Aminothiazol-4-yl)-2-[(Z)-[carboxy(3,4-dihydroxy-phenyl)methyl]oxyimino]acetamido]-3-(5,6-dihydroxy-2-methyl-2-isoindolinio)methyl-3-cephem-4-carboxylate]: the MIC in [1] amounted to 8.3 µg/mL (≈ 11.6 µM); in test [2], 0.3 µg/mL (≈ 0.421 µM); in test [3], 13 µg/mL (≈ 18.2 µM); in test [5], 1.6 µg/mL (≈ 2.24 µM); in test [6], 0.4 µg/mL (≈ 0.561 µM); in test [7], 12.5 µg/mL (≈ 17.5 µM). Besides, the MIC in [9] turned out to be 0.46 µg/mL (≈ 0.645 µM); in test [10] it was 0.46 µg/mL (≈ 0.645 µM); in [11], 0.8 µg/mL (≈ 1.12 µM). Further, the figures for the ED50 in test [4], in test [8] and in test [12] were 0.045 mg/kg, 2.1 mg/kg and 2.4 mg/kg, respectively.
